# Experimental data published in patent EP1170007A1, “REMEDIES” (Takara Shuzo Co, Ltd., priority 1999, dated 2000).
# “And” between values parts separate entries of the source, which are not always exact repeats. Equal entries are not always repeated.
# Tested on: interleukin-12
# Experiment: Intraperitoneal interleukin-12 in mice inoculated with Ehrlich cancer cells (ELISA)
# Type: in vivo, ddY mouse
# Conditions: for Amount of intraperitoneal interleukin-12: 10 mg/kg intraperitoneally 1 day after inoculation, individual mice
# Protocol: ddY mouse (female, 5 weeks old, weighing about 25 g) purchased from Japan SLC was used for experiments after preliminary breeding for 1 week. 1 x 10^6 Ehrlich cancer cells were intraperitoneally inoculated into the mouse. 10 mg/kg of cyclopentenone was intraperitoneally administered 1 day after the inoculation. The mouse was sacrificed by decapitating and exsanguinating 8 or 12 days after the inoculation with cancer cells. 2 ml, which is the same volume as that of ascites retained in the control mouse, of PBS (-) (Nissui Pharmaceutical) containing 1% bovine serum albumin (Sigma) was intraperitoneally injected into the mouse, which was recovered after extensive massage. For a control group, ascites was directly recovered. The recovered ascites and peritoneal lavage fluid were centrifuged at 2000 rpm for 5 minutes to recover supernatants. The supernatants were used to quantify the amounts of interleukin-12 using an ELISA kit for mouse interleukin-12 measurement (Endogen).
smiles,measurement,setting,value
"O=C1C=CC(O)C1O (stereo not drawn) [cyclopentenone, 4,5-dihydroxy-2-cyclopenten-1-one]",Amount of intraperitoneal interleukin-12,"After 8 Days, control group ND",11.0 pg/mL and 100.0 pg/mL and 25.0 pg/mL
same,Amount of intraperitoneal interleukin-12,"After 12 Days, control group all dead",43.0 pg/mL and 97.2 pg/mL and 66.4 pg/mL
same,activity of enhancing interleukin-12 production (result in words),Ehrlich cancer cell inoculated mice,an activity of enhancing interleukin-12 production by cyclopentenone was observed for each mouse
